Experimental data as given in ChEMBL document CHEMBL4477252, “Optimization of microtubule affinity regulating kinase (MARK) inhibitors with improved physical properties” (Bioorg Med Chem Lett, 2016).

What was measured:
[1] = molecular target: Leucine-rich repeat serine/threonine-protein kinase 2 (Homo sapiens, UniProt Q5S007); assay: Inhibition of recombinant human GST-tagged LRRK2 catalytic domain expressed in baculovirus expression system by Adapta assay
[2] = molecular target: Serine/threonine-protein kinase MRCK alpha (Homo sapiens, UniProt Q5VT25); assay: Inhibition of recombinant human His-tagged CDC42BPA catalytic domain expressed in baculovirus expression system by Z'-LYTE assay
Serine/threonine-protein kinase MRCK alpha, sequence (Q5VT25 whole entry, the tested form may be a part): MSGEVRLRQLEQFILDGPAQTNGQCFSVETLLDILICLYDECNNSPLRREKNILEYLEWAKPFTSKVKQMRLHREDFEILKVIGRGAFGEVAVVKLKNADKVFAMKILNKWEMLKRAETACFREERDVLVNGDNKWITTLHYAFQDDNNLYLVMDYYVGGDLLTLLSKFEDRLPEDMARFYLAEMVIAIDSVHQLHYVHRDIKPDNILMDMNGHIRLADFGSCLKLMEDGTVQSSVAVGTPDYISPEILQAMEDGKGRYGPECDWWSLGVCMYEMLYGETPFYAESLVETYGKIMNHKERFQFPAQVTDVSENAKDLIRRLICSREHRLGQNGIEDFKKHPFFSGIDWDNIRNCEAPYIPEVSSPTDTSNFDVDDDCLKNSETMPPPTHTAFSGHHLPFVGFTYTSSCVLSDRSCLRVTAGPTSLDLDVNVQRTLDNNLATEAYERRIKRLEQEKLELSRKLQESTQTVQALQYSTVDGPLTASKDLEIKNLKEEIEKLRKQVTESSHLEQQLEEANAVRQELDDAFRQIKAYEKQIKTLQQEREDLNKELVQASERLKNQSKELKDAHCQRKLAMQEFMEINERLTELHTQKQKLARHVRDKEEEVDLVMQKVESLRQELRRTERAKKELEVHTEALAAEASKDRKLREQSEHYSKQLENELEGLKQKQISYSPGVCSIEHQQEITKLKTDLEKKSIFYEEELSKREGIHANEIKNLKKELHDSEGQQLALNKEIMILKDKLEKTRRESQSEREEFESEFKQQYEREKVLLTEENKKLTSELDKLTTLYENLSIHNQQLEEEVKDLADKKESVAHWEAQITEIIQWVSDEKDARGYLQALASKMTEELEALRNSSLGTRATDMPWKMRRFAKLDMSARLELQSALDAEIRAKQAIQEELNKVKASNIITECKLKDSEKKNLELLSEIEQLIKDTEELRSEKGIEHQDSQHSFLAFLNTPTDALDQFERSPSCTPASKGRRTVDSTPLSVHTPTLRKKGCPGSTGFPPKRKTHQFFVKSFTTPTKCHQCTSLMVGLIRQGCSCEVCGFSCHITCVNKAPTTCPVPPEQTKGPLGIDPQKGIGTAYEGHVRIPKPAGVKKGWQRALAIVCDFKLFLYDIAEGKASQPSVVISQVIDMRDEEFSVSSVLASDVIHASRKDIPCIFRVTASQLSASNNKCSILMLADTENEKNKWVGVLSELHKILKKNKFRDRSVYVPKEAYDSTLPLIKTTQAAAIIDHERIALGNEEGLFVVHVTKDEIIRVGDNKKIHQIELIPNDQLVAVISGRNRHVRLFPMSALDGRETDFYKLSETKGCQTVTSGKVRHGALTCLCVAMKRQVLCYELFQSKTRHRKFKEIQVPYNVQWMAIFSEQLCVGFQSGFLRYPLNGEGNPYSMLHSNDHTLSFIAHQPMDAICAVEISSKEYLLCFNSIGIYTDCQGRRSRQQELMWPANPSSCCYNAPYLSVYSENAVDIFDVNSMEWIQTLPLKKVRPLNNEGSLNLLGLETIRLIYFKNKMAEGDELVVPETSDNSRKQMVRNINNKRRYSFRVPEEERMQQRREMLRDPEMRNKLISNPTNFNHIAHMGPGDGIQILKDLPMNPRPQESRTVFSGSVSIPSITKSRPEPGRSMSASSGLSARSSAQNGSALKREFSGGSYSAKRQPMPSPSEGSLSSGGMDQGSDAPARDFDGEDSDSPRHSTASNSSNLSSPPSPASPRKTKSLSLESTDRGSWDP

[3] = molecular target: Mast/stem cell growth factor receptor Kit (Homo sapiens, UniProt P10721); assay: Inhibition of recombinant human His-tagged cytoplasmic KIT expressed in baculovirus expression system by Z'-LYTE assay
[4] = molecular target: NT-3 growth factor receptor (Homo sapiens, UniProt Q16288); assay: Inhibition of recombinant human His-tagged cytoplasmic NTRK3 expressed in baculovirus expression system by Z'-LYTE assay
[5] = molecular target: T1, 3-phosphoinositide-dependent protein kinase 1 (Homo sapiens, UniProt O15530); assay: Inhibition of full-length recombinant human His-tagged PDK1 expressed in baculovirus expression system by Z'-LYTE assay
T1 sequence (O15530 whole entry): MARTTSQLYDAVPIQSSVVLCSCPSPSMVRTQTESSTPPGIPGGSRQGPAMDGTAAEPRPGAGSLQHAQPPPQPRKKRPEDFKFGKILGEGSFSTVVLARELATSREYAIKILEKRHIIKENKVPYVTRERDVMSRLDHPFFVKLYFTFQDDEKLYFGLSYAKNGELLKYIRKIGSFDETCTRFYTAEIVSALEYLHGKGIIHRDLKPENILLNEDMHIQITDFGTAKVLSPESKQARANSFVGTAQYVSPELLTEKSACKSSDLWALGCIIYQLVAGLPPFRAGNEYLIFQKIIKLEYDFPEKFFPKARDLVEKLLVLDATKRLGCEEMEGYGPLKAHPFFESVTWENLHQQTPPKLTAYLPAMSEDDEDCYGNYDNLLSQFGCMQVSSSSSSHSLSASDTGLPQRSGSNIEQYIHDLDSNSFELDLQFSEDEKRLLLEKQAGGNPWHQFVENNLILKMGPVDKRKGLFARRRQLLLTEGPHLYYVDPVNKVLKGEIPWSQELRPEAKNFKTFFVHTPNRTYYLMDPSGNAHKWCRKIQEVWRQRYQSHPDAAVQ

Ephrin type-A receptor 3 = molecular target: T2, Ephrin type-A receptor 3 (Homo sapiens, UniProt P29320); assay: Inhibition of recombinant human His-tagged cytoplasmic EPHA3 expressed in baculovirus expression system by LanthaScreen assay
T2 sequence (P29320 whole entry): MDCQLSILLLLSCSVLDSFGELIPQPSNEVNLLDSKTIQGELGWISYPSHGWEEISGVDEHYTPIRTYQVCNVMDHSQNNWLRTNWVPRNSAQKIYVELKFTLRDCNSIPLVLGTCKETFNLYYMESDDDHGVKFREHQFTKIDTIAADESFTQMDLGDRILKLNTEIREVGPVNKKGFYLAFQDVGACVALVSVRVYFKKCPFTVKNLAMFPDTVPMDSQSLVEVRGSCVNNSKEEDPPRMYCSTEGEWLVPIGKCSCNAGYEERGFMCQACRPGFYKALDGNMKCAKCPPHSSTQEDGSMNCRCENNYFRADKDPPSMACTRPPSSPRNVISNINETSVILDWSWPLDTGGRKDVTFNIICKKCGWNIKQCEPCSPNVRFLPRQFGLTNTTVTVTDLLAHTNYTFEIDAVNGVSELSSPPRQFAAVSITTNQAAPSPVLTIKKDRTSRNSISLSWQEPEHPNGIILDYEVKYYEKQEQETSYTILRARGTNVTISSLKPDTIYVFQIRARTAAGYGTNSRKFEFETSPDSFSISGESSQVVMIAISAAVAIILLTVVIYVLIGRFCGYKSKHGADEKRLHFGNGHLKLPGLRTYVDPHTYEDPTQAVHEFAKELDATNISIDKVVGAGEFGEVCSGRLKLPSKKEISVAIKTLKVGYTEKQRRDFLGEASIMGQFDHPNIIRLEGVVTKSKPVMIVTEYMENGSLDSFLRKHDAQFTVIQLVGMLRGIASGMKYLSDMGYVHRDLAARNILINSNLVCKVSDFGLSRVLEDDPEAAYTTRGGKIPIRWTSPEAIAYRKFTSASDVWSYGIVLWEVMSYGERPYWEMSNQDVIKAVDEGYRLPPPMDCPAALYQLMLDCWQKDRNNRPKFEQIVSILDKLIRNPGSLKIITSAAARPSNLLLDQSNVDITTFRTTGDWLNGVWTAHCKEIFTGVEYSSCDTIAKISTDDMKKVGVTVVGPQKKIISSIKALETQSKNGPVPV

[6] = molecular target: T3, Testis-specific serine/threonine-protein kinase 1 (Homo sapiens, UniProt Q9BXA7); assay: Inhibition of full-length recombinant human His-tagged STK22D expressed in baculovirus expression system by Z'-LYTE assay
T3 sequence (Q9BXA7 whole entry): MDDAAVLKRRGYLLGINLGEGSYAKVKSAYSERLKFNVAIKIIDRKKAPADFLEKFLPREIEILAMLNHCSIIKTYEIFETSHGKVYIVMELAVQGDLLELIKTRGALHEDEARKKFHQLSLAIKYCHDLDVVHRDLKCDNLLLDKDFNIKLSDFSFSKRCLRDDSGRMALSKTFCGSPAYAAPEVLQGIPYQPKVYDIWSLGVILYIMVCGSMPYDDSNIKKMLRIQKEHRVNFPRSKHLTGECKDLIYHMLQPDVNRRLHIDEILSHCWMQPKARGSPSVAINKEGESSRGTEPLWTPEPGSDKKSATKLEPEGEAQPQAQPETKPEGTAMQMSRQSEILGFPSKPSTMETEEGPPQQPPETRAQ

[7] = molecular target: Tyrosine-protein kinase BTK (Homo sapiens, UniProt Q06187); assay: Inhibition of full-length recombinant human His-tagged BTK expressed in baculovirus expression system by Z'-LYTE assay
Tyrosine-protein kinase BTK, sequence (Q06187 whole entry): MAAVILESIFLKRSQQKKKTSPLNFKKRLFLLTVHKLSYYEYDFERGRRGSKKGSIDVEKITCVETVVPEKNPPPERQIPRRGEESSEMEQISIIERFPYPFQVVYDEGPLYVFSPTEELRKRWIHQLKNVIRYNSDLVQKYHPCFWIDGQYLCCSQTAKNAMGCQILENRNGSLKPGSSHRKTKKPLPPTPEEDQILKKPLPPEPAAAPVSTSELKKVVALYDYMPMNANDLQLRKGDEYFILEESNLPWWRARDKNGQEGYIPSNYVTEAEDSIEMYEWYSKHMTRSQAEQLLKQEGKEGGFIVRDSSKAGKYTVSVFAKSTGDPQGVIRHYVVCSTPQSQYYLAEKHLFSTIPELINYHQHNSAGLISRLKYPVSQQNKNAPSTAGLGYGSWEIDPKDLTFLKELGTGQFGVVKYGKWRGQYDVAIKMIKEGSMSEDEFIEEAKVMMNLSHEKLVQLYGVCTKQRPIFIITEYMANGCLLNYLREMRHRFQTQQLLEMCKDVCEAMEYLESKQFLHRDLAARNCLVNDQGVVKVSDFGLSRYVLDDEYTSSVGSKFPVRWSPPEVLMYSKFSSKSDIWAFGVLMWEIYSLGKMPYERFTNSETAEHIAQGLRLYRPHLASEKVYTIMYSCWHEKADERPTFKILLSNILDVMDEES

[8] = molecular target: T4, Interleukin-1 receptor-associated kinase 4 (Homo sapiens, UniProt Q9NWZ3); assay: Inhibition of full-length recombinant human His-tagged IRAK4 expressed in baculovirus expression system by Z'-LYTE assay
T4 sequence (Q9NWZ3 whole entry): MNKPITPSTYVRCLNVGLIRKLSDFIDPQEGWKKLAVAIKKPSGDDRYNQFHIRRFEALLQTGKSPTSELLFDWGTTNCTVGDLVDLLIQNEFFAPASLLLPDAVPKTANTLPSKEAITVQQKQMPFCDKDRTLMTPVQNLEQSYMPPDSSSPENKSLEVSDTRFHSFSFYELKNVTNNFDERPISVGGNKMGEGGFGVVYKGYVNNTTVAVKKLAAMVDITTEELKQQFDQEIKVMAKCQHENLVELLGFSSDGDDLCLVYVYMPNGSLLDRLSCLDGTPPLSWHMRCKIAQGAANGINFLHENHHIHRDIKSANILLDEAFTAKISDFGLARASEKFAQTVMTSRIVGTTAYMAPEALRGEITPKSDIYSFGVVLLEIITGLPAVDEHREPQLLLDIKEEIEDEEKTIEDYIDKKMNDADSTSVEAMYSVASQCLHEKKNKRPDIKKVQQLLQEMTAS

Leucine-rich repeat serine/threonine-protein kinase 2, sequence (Q5S007 whole entry, the tested form may be a part): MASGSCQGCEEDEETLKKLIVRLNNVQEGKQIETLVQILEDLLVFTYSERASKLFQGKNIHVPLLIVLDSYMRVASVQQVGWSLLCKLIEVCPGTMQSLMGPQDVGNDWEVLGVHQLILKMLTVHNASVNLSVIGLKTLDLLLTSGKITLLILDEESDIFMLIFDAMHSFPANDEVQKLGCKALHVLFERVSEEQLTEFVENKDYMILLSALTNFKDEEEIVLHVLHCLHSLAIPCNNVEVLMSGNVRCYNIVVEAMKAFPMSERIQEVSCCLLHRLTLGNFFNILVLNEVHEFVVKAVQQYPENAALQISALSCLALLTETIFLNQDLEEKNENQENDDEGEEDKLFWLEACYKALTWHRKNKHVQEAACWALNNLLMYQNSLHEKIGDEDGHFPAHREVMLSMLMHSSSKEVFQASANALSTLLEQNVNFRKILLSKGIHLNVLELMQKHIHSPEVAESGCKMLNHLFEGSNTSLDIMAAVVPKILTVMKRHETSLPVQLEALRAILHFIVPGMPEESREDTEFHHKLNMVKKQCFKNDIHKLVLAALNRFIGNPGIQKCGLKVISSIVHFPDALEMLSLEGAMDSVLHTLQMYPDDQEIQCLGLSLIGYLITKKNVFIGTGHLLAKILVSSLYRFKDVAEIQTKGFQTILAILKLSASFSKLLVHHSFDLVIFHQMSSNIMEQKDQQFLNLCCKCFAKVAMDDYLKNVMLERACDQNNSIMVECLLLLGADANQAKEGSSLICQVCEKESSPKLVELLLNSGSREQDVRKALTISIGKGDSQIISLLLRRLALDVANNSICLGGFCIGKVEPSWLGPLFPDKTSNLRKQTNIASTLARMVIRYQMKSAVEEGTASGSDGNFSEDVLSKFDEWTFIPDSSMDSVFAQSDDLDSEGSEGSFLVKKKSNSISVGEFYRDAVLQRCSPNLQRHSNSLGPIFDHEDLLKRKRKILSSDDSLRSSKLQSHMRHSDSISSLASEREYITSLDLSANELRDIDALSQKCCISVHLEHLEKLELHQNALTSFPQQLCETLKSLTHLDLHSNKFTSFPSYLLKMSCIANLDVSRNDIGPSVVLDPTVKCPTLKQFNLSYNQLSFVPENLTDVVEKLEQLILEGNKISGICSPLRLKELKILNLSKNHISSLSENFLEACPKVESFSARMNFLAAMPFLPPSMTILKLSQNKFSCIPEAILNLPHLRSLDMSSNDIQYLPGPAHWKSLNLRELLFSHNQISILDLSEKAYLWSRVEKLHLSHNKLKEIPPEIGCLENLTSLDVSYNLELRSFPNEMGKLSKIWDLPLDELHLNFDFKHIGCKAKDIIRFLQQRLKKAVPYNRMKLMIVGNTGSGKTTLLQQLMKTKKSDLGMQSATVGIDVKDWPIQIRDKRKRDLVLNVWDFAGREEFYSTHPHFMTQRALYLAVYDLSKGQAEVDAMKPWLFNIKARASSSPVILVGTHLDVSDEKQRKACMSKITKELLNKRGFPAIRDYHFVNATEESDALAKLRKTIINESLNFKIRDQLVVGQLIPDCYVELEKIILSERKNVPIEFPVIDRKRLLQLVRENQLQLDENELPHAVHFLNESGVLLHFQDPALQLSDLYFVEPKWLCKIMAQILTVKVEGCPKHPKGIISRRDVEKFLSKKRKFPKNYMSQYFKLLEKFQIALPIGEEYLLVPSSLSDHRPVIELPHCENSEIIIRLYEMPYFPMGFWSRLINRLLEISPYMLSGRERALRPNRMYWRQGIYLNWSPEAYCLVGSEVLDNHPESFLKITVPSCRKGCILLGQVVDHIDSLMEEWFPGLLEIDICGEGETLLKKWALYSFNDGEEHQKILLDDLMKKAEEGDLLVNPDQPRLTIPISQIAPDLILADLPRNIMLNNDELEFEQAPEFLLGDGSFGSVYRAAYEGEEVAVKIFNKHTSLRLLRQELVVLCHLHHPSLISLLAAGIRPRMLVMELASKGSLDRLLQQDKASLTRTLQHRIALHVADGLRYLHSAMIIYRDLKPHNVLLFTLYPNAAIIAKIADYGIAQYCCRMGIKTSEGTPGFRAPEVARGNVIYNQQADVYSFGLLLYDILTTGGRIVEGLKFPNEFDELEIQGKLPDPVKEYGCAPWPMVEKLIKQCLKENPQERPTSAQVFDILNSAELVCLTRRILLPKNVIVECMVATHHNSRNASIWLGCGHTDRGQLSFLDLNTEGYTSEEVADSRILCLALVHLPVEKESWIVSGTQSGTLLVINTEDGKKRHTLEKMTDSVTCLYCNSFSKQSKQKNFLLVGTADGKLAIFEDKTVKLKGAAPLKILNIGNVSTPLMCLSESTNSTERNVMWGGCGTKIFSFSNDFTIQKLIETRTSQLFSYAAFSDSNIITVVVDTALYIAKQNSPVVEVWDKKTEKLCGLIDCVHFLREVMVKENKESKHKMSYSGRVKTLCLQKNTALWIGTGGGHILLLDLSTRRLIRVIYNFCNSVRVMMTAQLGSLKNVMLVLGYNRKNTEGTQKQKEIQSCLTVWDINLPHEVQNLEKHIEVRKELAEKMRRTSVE

| Compound | IC50 [1] | IC50 [2] | IC50 [3] | IC50 [4] | IC50 [5] | IC50 (Ephrin type-A receptor 3) | IC50 [6] | IC50 [7] | IC50 [8] |
| --- | --- | --- | --- | --- | --- | --- | --- | --- | --- |
| Cn1cc(-c2cnc3c(-c4csc(C(=O)NCC(F)(F)F)c4)cnn3c2)cn1 | < 0.01 µM | 9.2 µM | 0.81 µM | 0.12 µM | 0.053 µM | 0.052 µM | 0.02 µM | 0.36 µM | 0.064 µM |
| Cc1sc(C(=O)N[C@@H]2[C@H](N)CCCC2(F)F)cc1-c1cnn2cc(Cl)cnc12 | 0.062 µM | 1 µM | > 100 µM | 1.4 µM | 0.33 µM | > 100 µM | < 0.01 µM | 13 µM | 3 µM |
| O=C(NCC(F)(F)F)c1cc(-c2cnn3cc(-c4ccc(OCCN5CCCCC5)cc4)cnc23)cs1 | 0.014 µM | 1.2 µM | 2.7 µM | 0.38 µM | 0.13 µM | 0.18 µM | < 0.01 µM | 0.29 µM | 0.21 µM |
| Cn1cc(-c2cnc3c(-c4csc(C(=O)N[C@@H]5CCCC[C@@H]5N)c4)cnn3c2)cn1 (racemic) | 0.0031 µM | 0.072 µM | 0.69 µM | 0.013 µM | 0.02 µM | 0.022 µM | < 0.001 µM | < 0.001 µM | 0.023 µM |
